Structures can show the parent of a compound that is named as a salt. Where two headings read alike, the source gives them in different places. Where only a bound is given, the exact number is not on record here.

The subject of assay [1] is ZIKV production from SNB-19 cells. The experiment in a line: Infectious ZIKV production from SNB-19 cells, focus-forming unit assay on Vero cells. The format is cell-based, Zika virus. The settings on record: PRVABC59-ZIKV, SNB-19 supernatants on Vero cells, ZIKV-ENV stain; read-out: IC50 against ZIKV infection in human glioblastoma cell culture. On the procedure: FIGS. 2A-1, 2A-2, 2B-1, 2B-2, 2C-1, 2C-2, 2D-1, 2D-2, 2D-3, 2E-1, 2E-2, and 2F. […] Screening of select compounds for antiviral activity against ZIKV infection was carried out. Glioblastoma SNB-19 cells were treated with indicated compound at 10×AC50 (determined in the primary caspase screen) for 1 hour prior to inoculation with FSS-13025 (at MOI=1). Cells were harvested 24 hours post infection and analyzed by Western blot for ZIKV-NS1 or GAPDH (FIGS. 2A-1 and 2A-2). Titration of PHA-690509 on glioblastoma cells for anti-ZIKV activity. Three strains of virus (FSS-13025, PRVABC59, and MR766; MOI=1) were tested. Shown are sample western blot images (FIG. 2B-1) and ImageJ quantification (FIG. 2B-2). Values represent mean±s.d. (n=3; ***P<0.001; One-way ANOVA). Titration of Emricasan on SNB-19 cells for anti-ZIKV activity was conducted similarly (FIGS. 2C-1 and 2C-2). Values represent mean±s.d. […] Sample western blot (FIG. 2D-2) and ImageJ quantification (FIG. 2D-3) are shown for infection with the PRVABC59 strain (MOI=1). Results for additional strains are shown in FIGS. 6A-F. Values represent mean±s.d. […] The concentration of NS1 in the medium of infected SNB-19 cells collected 24 hours post-infection was quantified by a ZIKV-NS1 ELISA kit (FIGS. 2E-1 and 2E-2). […] Cell culture supernatant was collected 24 hours after infection, and infectious virions were quantified for focus-forming units (FFU) using Vero cells. […] Curves represent best fits for calculating IC50 values, and the insets report the calculated IC50 value for each compound.
FIGS. 18A, 18B, 18C-1, 18C-2, 18D, 18E, 18F, 18G-1, and 18G-2. […] 24 hours post infection, supernatants from SNB-19 cells were titrated onto naïve vero cells plated in a monolayer in 96-well plates for infectious focus-forming unit assay as previously described and focus forming units quantified. […] Immunofluorescence (IF) staining (FIG. 18C-1) and quantification (FIG. 18C-2) of ZIKV positive SNB-19 cells following infection with one of three ZIKV strains and treatment with emetine at 0.01, 0.1, or 1 μM. […]
FIG. 21. […] IC50's calculated using graphpad PRISM software. […]

In assay [2] the test system is ZIKV MR766 NS1. Description: microbe, parasite or virus in culture. The class given is cell-based, Zika virus. The settings on record: read-out: NS1-IC50. As for the experimental part:
A one-step NS1 TR-FRET (Time-resolved fluorescence resonance energy transfer) assay for a screen of anti-ZIKV compounds was carried out. Human embryonic kidney cell line HEK293 cells were seeded into 384-well plates and infected with ZIKV MR766 at a MOI of 0.5 for 2 days. The FRET assay was performed with two clones of anti-NS1 antibody (ab) differentially labelled with donor and acceptor fluorophores.

In assay [3] the test system is HEK293 cells. Description: Toxicity IC50 (cell-killing activity) of the NS1 TR-FRET screen. The class given is cell-based, human.
Where [4] appears, read: Homo sapiens, HEK293, cell-killing activity, read-out: Tox IC50.
[5] abbreviates: HEK293 cells, ZIKV MR766, MOI 0.5, 2 days, virus-inhibiting activity.
Where [6] appears, read: cell-killing activity, read-out: Tox IC50.

One may read the IC50 as the concentration that inhibits the measured activity by half. With `CCCCCCCC(=O)Oc1ccc(Cl)cc1C(=O)Nc1ccc([N+](=O)[O-])cc1Cl` [DK520], the IC50 in assay [1] was below 3000 nM.

On to `C[C@H]1O[C@@H](O[C@H]2[C@@H](O)C[C@H](O[C@H]3[C@@H](O)C[C@H](O[C@H]4CC[C@@]5(C)[C@H](CC[C@@H]6[C@@H]5C[C@@H](O)[C@]5(C)[C@@H](C7=CC(=O)OC7)CC[C@]65O)C4)O[C@@H]3C)O[C@@H]2C)C[C@H](O)[C@@H]1O` [Digoxin], for which the IC50 in assay [2] (Zika virus, HEK293, 48 h) was found to be 152 nM; in assay [3] (setting [4]), 60000 nM.

`CC[C@H](CC#N)OC(=O)N[C@@H](C)c1cccc(NC(=O)Nc2ccc(-c3cnco3)c(OC)c2)c1` [AVN-944]: the IC50 amounted to 136 nM in assay [2] (Zika virus, HEK293, 48 h) and 20000 nM in assay [3] (Homo sapiens, HEK293, read-out: Tox IC50).

On to `CC[C@@]1(O)C(=O)OCc2c1cc1n(c2=O)Cc2cc3ccccc3nc2-1` [(S)-(+)-Camptothecin], for which the IC50 in assay [2] (setting [5]) was found to be 26.4 nM. In addition, the “Tox IC50” value in assay [3] (cell-killing activity) is recorded as “No”.

As for `Nc1ccc(-c2ccc3ncc4ccc(=O)n(-c5cccc(C(F)(F)F)c5)c4c3c2)cn1` [Torin-2], the IC50 in assay [2] (setting [5]) was found to be 724 nM. In addition, the “Tox IC50” value in assay [3] (cell-killing activity) is on record as “No”.

For `OCCCNc1cc(-c2ccnc(Nc3cccc(Cl)c3)n2)ccn1` [CGP-60474], the 50% inhibitory concentration (IC50) in assay [2] (setting [5]) came to 794 nM; in assay [3] (setting [6]), 60000 nM.

With `C[C@@H]1C[C@@H]([C@H](O)CC2CC(=O)NC(=O)C2)C(=O)[C@@H](C)C1` [Cycloheximide], in assay [2] (Zika virus, HEK293, 48 h), the concentration for half-maximal inhibition (IC50) worked out at 287 nM. Moreover, in assay [3] (cell-killing activity), the “Tox IC50” value is “No”.

Regarding `C/C=C(\C)C(=O)N[C@@H](c1ccccc1)[C@@H](O)C(=O)O[C@H]1C[C@@]2(O)[C@@H](OC(=O)c3ccccc3)[C@@H]3[C@]4(OC(C)=O)CO[C@@H]4C[C@H](O)[C@@]3(C)C(=O)[C@H](OC(C)=O)C(=C1C)C2(C)C` [Cephalomannine], the IC50 in assay [2] (Zika virus, HEK293, 48 h) turned out to be 221 nM. In addition, the “Tox IC50” value in assay [3] (cell-killing activity) is listed as “No”.

As for `CC(=O)[C@]1(O)Cc2c(O)c3c(c(O)c2[C@@H](O[C@H]2C[C@H](N)[C@H](O)[C@H](C)O2)C1)C(=O)c1ccccc1C3=O` [Idarubicin hydrochloride], in assay [2] (Zika virus, HEK293, 48 h), the IC50 stood at 168 nM. The “Tox IC50” value in assay [3] (cell-killing activity) is “No”.

Take `COC(=O)[C@]12CCC(C)(C)C[C@H]1[C@H]1C(=O)C=C3[C@@]4(C)C=C(C#N)C(=O)C(C)(C)[C@@H]4CC[C@@]3(C)[C@]1(C)CC2` [Bardoxolone methyl]: the half-maximal inhibitory concentration (IC50) in assay [2] (Zika virus, HEK293, 48 h) was 282 nM; in assay [3] (setting [4]) it was 2680 nM.

As for `CC[C@@]1(O)C(=O)OCc2c1cc1n(c2=O)Cc2cc3cc(O)ccc3nc2-1` [10-hydroxycamptothecin], the half-inhibitory concentration (IC50) in assay [2] (setting [5]) came to 46.6 nM. Further, in assay [3] (cell-killing activity), the “Tox IC50” value is “No”.

Consider `CCC1=C[C@@H]2CN(C1)Cc1c([nH]c3ccccc13)[C@@](C(=O)OC)(c1cc3c(cc1OC)N(C)[C@H]1[C@@](O)(C(=O)OC)[C@H](OC(C)=O)[C@]4(CC)C=CCN5CC[C@]31[C@@H]54)C2` [Vinorelbine tartrate], for which, in assay [2] (Zika virus, HEK293, 48 h), the IC50 amounted to 270 nM. Moreover, the “Tox IC50” value in assay [3] (cell-killing activity) is “No”.

Take `O=C(Cc1ccc(-c2ccc(OCCN3CCOCC3)cc2)cn1)NCc1ccccc1` [KX-01]: the IC50 in assay [2] (setting [5]) turned out to be 481 nM; in assay [3] (setting [6]) it was 19300 nM.

Consider `COc1c(C)c2c(c(O)c1C/C=C(\C)CCC(=O)O)C(=O)OC2` [Mycophenolic acid], for which the IC50 in assay [2] (Zika virus, HEK293, 48 h) was found to be 539 nM. Also, the “Tox IC50” value in assay [3] (cell-killing activity) was “No”.

Take `CCC[C@H](Nc1nc(-c2ccc(NC(=O)NCC)c(OC)c2)ncc1C)c1cccnc1` [Lexibulin hydrochloride]: the IC50 in assay [2] (Zika virus, HEK293, 48 h) amounted to 171 nM. Moreover, the “Tox IC50” value in assay [3] (cell-killing activity) is listed as “No”.

Consider `CC(C)C[C@H](NC(=O)CNC(=O)c1cc(Cl)ccc1Cl)B1OC(=O)C(CC(=O)O)(CC(=O)O)O1` [Ixazomib citrate], for which the IC50 in assay [2] (Zika virus, HEK293, 48 h) is 196 nM; in assay [3] (setting [4]), 1580 nM.

Take `O=c1[nH]c2ccc(Cl)cc2c(N[C@@H]2CN3CCC2CC3)c1-c1nc2ccccc2[nH]1` [CHIR-124]: the IC50 was determined as 405 nM in assay [2] (setting [5]) and 3250 nM in assay [3] (setting [6]).

`Cn1cc(-c2[nH]c3cc(NC(=O)[C@H](N)C4CCCCC4)cc4c3c2C=NNC4=O)cn1` [PF-477736]: the half-inhibitory concentration (IC50) in assay [2] (setting [5]) stood at 489 nM. In assay [3] (cell-killing activity), the “Tox IC50” value is reported as “No”.

`NCC(=O)Nc1ccc(-n2nc(C(F)(F)F)cc2-c2ccc3c(ccc4ccccc43)c2)cc1` [OSU-03012]: the IC50 in assay [2] (Zika virus, HEK293, 48 h) is 992 nM; in assay [3] (setting [4]), 10000 nM.

`C[C@H]1CCC/C=C/[C@@H]2C[C@H](O)C[C@H]2[C@H](O)/C=C/C(=O)O1` [Cyanein]: the concentration for half-maximal inhibition (IC50) in assay [2] (setting [5]) was 432 nM. In assay [3] (cell-killing activity), the “Tox IC50” value is listed as “No”.

On to `Cc1ccc([N+](=O)[O-])cc1S(=O)(=O)N(C)/N=C/c1cnc2ccc(Br)cn12` [PIK-75], for which the IC50 in assay [2] (setting [5]) is 616 nM. Also, the “Tox IC50” value in assay [3] (cell-killing activity) is “No”.

For `CC(=O)O[C@H]1C(=O)[C@@]2(C)[C@H]([C@H](OC(=O)c3ccccc3)[C@]3(O)C[C@H](OC(=O)[C@H](O)[C@@H](NC(=O)c4ccccc4)c4ccccc4)C(C)=C1C3(C)C)[C@]1(OC(C)=O)CO[C@@H]1C[C@@H]2O` [PACLITAXEL], the IC50 in assay [2] (Zika virus, HEK293, 48 h) amounted to 89.4 nM. In assay [3] (cell-killing activity), the “Tox IC50” value is “No”.

`CC(C)C[C@H](NC(=O)[C@@H](NC(=O)c1cccc(-c2ccccc2)n1)[C@@H](C)O)B(O)O` [Delanzomib]: the IC50 in assay [2] (Zika virus, HEK293, 48 h) was 58.5 nM; in assay [3] (setting [4]), 300 nM.

For `CC[C@]1(O)C[C@@H]2CN(CCc3c([nH]c4ccccc34)[C@@](C(=O)OC)(c3cc4c(cc3OC)N(C)[C@H]3[C@@](O)(C(N)=O)[C@H](O)[C@]5(CC)C=CCN6CC[C@]43[C@@H]65)C2)C1` [Vindesine sulfate salt], the IC50 in assay [2] (Zika virus, HEK293, 48 h) was found to be 664 nM. The “Tox IC50” value in assay [3] (cell-killing activity) is reported as “No”.

As for `CC(C)c1nn(-c2c(Cl)cccc2Cl)c2nc(Cc3ccc(OCCO)cc3)[nH]c(=O)c12` [RGB-286147], the half-maximal inhibitory concentration (IC50) in assay [2] (setting [5]) was 268 nM. Besides, the “Tox IC50” value in assay [3] (cell-killing activity) is listed as “No”.

As to `CCc1c2c(nc3ccc(O)cc13)-c1cc3c(c(=O)n1C2)COC(=O)[C@]3(O)CC` [SN-38], the IC50 in assay [2] (setting [5]) turned out to be 11.3 nM. In assay [3] (cell-killing activity), the “Tox IC50” value is given as “No”.

With `NC(=O)Nc1cc(-c2cccc(F)c2)sc1C(=O)N[C@H]1CCCNC1` [AZD-7762], the IC50 in assay [2] (Zika virus, HEK293, 48 h) turned out to be 366 nM. Further, the “Tox IC50” value in assay [3] (cell-killing activity) is listed as “No”.

These data come from US10940188B2, “Compounds and methods for treatment and prevention of Flavivirus infection” (priority 2016, dated 2021).
